Assay results from ChEMBL document CHEMBL1141813, “Activities of plant-derived phenols in a fibroblast cell culture model” (J Nat Prod, 1999).
Active and inactive are the calls of the source. The calls are words filed in the database; no cut-off is given here.

Assays:
BALB/3T3 [1] = assay: Growth inhibition of BALB/c mouse cloned 3T3/A31 cells at 10 to 100 ug/mL after 72 hrs by nigrosin assay; assay type: functional, cell-based
BALB/3T3 [2] = assay: (§1) Growth inhibition of BALB/c mouse cloned 3T3/A31 cells after 72 hrs by nigrosin assay; assay type: functional, cell-based
[3] = as §1; assay type: functional, cell-based; conditions: BALB/3T3, 72 h
BALB/3T3 [4] = assay: Cytotoxicity against BALB/c mouse cloned 3T3/A31 cells at 1 to 100 ug/mL after 72 hrs by nigrosin assay; assay type: functional, cell-based
BALB/3T3 [5] = assay: Stimulation of BALB/c mouse cloned 3T3/A31 cells growth at 0.01 to 0.1 ug/mL; assay type: functional
BALB/3T3 [6] = assay: Growth inhibition of BALB/c mouse cloned 3T3/A31 cells at 100 ug/mL after 72 hrs by nigrosin assay; assay type: functional, cell-based
BALB/3T3 [7] = assay: Stimulation of BALB/c mouse cloned 3T3/A31 cells growth at 0.01 to 1 ug/mL; assay type: functional
BALB/3T3 [8] = assay: Stimulation of BALB/c mouse cloned 3T3/A31 cells proliferation at 0.01 to 10 ug/mL; assay type: functional, cell-based
[9] = Stimulation of BALB/c mouse cloned 3T3/A31 cells proliferation at 0.01 ug/mL; assay type: functional, BALB/3T3
BALB/3T3 [10] = assay: Growth inhibition of BALB/c mouse cloned 3T3/A31 cells at 0.01 to 100 ug/mL after 72 hrs by nigrosin assay; assay type: functional, cell-based

Compound | Activity (BALB/3T3 [1]) | Activity (BALB/3T3 [2]) | IC50 [3] | also measured
COc1ccc(-c2coc3cc(O)cc(O)c3c2=O)cc1 [BIOCHANIN] | Active | Dose-dependent effect | 220 µM | –
O=c1c(-c2ccc(O)cc2)coc2cc(O)cc(O)c12 [GENISTEIN] | – | Dose-dependent effect | 184 µM | Activity (BALB/3T3 [4]): Active; Activity (BALB/3T3 [5]): 5.3%
C[C@@H]1O[C@@H](Oc2c(-c3ccc(O)c(O)c3)oc3cc(O)cc(O)c3c2=O)[C@H](O)[C@H](O)[C@H]1O [QUERCITRIN] | – | Dose-dependent effect | > 223 µM | Activity (BALB/3T3 [6]): Active; Activity (BALB/3T3 [7]): 4.9%
O=c1cc(-c2ccccc2)oc2cc(O)cc(O)c12 [CHRYSIN] | – | Dose-dependent effect | 248 µM | Activity (BALB/3T3 [4]): Active
O=C(O)/C=C/c1ccccc1 [CINNAMIC ACID] | Active | Dose-dependent effect | 671 µM | –
O=c1cc(-c2ccccc2)oc2ccccc12 [FLAVONE] | – | Dose-dependent effect | 287 µM | Activity (BALB/3T3 [4]): Active
O=c1c(O)c(-c2ccc(O)c(O)c2)oc2cc(O)cc(O)c12 [QUERCETIN] | Active | Dose-dependent effect | 217 µM | Activity (BALB/3T3 [5]): 5.3%
C[C@@H]1O[C@@H](OC[C@H]2O[C@@H](Oc3c(-c4ccc(O)c(O)c4)oc4cc(O)cc(O)c4c3=O)[C@H](O)[C@@H](O)[C@@H]2O)[C@H](O)[C@H](O)[C@H]1O [RUTIN] | – | Dose-dependent effect | > 164 µM | Activity (BALB/3T3 [8]): Active; Activity [9]: 30.4%
Oc1cc(O)c2c(c1)OC(c1ccc(O)c(O)c1)C(O)C2 (configuration not stated) [CATECHIN] | Active | Dose-dependent effect | > 344 µM | –
O=c1cc(-c2ccccc2)oc2cc(O)c(O)c(O)c12 [BAICALEIN] | Active | Dose-dependent effect | 342 µM | –
COc1ccc(/C=C/C(=O)O)cc1OC [O,O'-DIMETHYLCAFFEIC ACID] | Active | Dose-dependent effect | > 480 µM | –
O=C(O)/C=C/c1ccc(O)c(O)c1 [CAFFEIC ACID] | Active | Dose-dependent effect | 554 µM | –
O=C(/C=C/c1ccc(O)c(O)c1)O[C@@H]1C[C@](O)(C(=O)O)C[C@@H](O)[C@H]1O [CHLOROGENIC ACID] | – | Dose-dependent effect | > 280 µM | Activity (BALB/3T3 [6]): Active; Activity (BALB/3T3 [5]): 5.3%
O=c1cc(-c2ccc(O)cc2)oc2cc(O)cc(O)c12 [APIGENIN] | – | Dose-dependent effect | 141 µM | Activity (BALB/3T3 [10]): Active
